# Laboratory results from ChEMBL document CHEMBL4610051, “Spirobiflavonoid stereoisomers from the endangered conifer Glyptostrobus pensilis and their protein tyrosine phosphatase 1B inhibitory activity” (Bioorg Med Chem Lett, 2020).
# Target: T1, Tyrosine-protein phosphatase non-receptor type 1 (Homo sapiens, UniProt P18031)
# T1 sequence (P18031 whole entry): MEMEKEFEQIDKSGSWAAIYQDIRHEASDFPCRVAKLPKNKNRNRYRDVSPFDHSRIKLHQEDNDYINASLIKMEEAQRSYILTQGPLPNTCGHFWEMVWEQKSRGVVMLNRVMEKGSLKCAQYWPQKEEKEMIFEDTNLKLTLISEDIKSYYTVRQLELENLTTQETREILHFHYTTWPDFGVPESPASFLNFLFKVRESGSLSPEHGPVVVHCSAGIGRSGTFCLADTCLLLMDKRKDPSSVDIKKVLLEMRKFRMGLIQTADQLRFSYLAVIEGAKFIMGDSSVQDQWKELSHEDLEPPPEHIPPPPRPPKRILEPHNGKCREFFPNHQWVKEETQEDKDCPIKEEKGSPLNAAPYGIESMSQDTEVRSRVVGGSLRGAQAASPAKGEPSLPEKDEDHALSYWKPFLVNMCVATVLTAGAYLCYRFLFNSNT
# Assay: Inhibition of human PTP1B
row,SMILES,IC50 [µM]
1,O=C1Oc2cc(O)c3c(c2[C@]12c1c(O)cc(O)cc1O[C@@H]2c1ccc(O)cc1)O[C@H](c1ccc(O)cc1)[C@@H](O)C3,3.3
2,O=C1Oc2cc(O)c3c(c2[C@]12c1c(O)cc(O)cc1O[C@@H]2c1ccc(O)cc1)O[C@H](c1ccc(O)cc1)[C@H](O)C3 [LARIXINOL],12.9
3,O=C1Oc2cc(O)c3c(c2[C@@]12c1c(O)cc(O)cc1O[C@@H]2c1ccc(O)cc1)O[C@H](c1ccc(O)cc1)[C@@H](O)C3,17.1

# Continued, values first:
row,IC50 [µM],SMILES
1,4.6,O=C1Oc2cc(O)c3c(c2[C@@]12c1c(O)cc(O)cc1O[C@H]2c1ccc(O)cc1)O[C@H](c1ccc(O)cc1)[C@@H](O)C3
2,8.1,O=C1Oc2cc(O)c3c(c2[C@@]12c1c(O)cc(O)cc1O[C@@H]2c1ccc(O)cc1)O[C@H](c1ccc(O)cc1)[C@H](O)C3
3,11.2,O=C1Oc2cc(O)c3c(c2[C@]12c1c(O)cc(O)cc1O[C@H]2c1ccc(O)cc1)O[C@H](c1ccc(O)cc1)[C@@H](O)C3
